Patent US20180318311A1, “TRICYCLIC 2-QUINOLINONES AS ANTIBACTERIALS” (priority 2017, published 2018)
In brackets after ≈: the same amount, converted by molar mass. Read-outs that look alike come from different tables or passages of the source.

Columns and labels:
Assay type in all cases: cell-based
[1] = test system: S. aureus NB01006-AVR005, gyrA (S84L), grlA (580F) and grlB (E471K); experiment: microbe, parasite or virus in culture; conditions: Staphylococcus aureus, 20 h, read-out: Antibacterial activity (MIC) NB01006-AVR005
Method: (§1) Bacterial isolates were cultivated from −80° C. frozen stocks by overnight passages at 35° C. in ambient air on Mueller-Hinton agar plates (MHA, Becton Dickinson, Franklin Lakes, NB) with the exception of S. pneumoniae which was grown overnight at 35° C. in the presence of 5% CO2 on blood agar plates (tryptic soy agar with 5% sheep blood (Thermo Scientific, Waltham, Mass.) . The following quality control and wild type strains were obtained from the American Type Culture Collection (ATCC; Rockville, Md.) and are coded in the Novartis strain collection as indicated: E. coli ATCC 25922 (NB27001), E. faecalis ATCC 29212 (NB04001), S. aureus ATCC 49951 (NB01006) and S. pneumoniae ATCC […] (NB07001). […] P. aeruginosa NB52019, obtained from Queen's University (Kingston, Ontario, Canada), is the wild-type PAO1 strain.
(§2) Minimal Inhibitory Concentrations (MIC) were determined by the broth microdilution method in accordance with Clinical and Laboratories Institute (CLSI) guidelines. In brief, fresh bacterial overnight cultures were re-suspended in sterile saline, adjusted to a 0.5 McFarland turbidity standard and then diluted to yield a final inoculum of approximately 5×10^5 colony-forming units (CFU)/mL. All bacterial suspensions were prepared in cation adjusted Mueller-Hinton Broth (CAMHB; Becton Dickinson, Franklin Lakes, N.J.;) with the exception of S. pneumoniae which was prepared in CAMHB supplemented with 5% lysed horse blood (Hardy Diagnostics, Santa Maria, Calif.). Two-fold serial dilutions of compounds were prepared in 100% dimethyl sulfoxide (DMSO) at 100-fold the highest final assay concentration; the resulting dilution series of compounds were diluted 1:10 with sterile water. Ten μL of the drug dilution series in 10% DMSO was transferred to microtiter wells and 90 μL of bacterial suspension was inoculated into the wells. All inoculated microdilution trays were incubated in ambient air at 35° C. for 20 hours. Following incubation, assay plates were read in a microtiter plate reader at 600 nm and visually inspected to confirm the MIC endpoint well with the OD value. The lowest concentration of the compound that prevented visible growth was recorded as the MIC (in μg/mL).

[2] = test system: S. aureus NB01080 fluoroquinolone-resistant clinical isolate; experiment: MIC by broth microdilution, S. aureus NB01080; conditions: Staphylococcus aureus, CAMHB, 35° C., 20 hours, read-out: Antibacterial activity (MIC) NB01080
Method: as §1, §2

[3] = test system: E. faecalis ATCC 29212 (NB04001); experiment: MIC by broth microdilution, E. faecalis NB04001; conditions: Enterococcus faecalis, ATCC29212, CAMHB, 35° C., 20 hours, read-out: Antibacterial activity (MIC) NB04001
Method: as §1, §2

[4] = test system: S. aureus ATCC 49951 (NB01006); experiment: MIC by broth microdilution, S. aureus NB01006; conditions: Staphylococcus aureus, ATCC49951, CAMHB, 35° C., 20 hours, read-out: Antibacterial activity (MIC) NB01006
Method: as §1, §2

[5] = test system: S. pneumoniae ATCC 25922 (NB07001); experiment: MIC by broth microdilution, S. pneumoniae NB07001; conditions: Streptococcus pneumoniae, read-out: Antibacterial activity (MIC) NB07001
Method: as §1, §2

[6] = test system: P. aeruginosa NB52019, wild-type PAO1 strain; experiment: MIC by broth microdilution, P. aeruginosa NB52019; conditions: Pseudomonas aeruginosa, CAMHB, 35° C., 20 hours, read-out: Antibacterial activity (MIC) NB52019
Method: as §1, §2

[7] = test system: E. coli ATCC 25922 (NB27001); experiment: MIC by broth microdilution, E. coli NB27001; conditions: Escherichia coli, ATCC25922, CAMHB, 35° C., 20 hours, read-out: Antibacterial activity (MIC) NB27001
Method: as §1, §2

Compound | MIC [1] [µg/mL] | MIC [2] [µg/mL] | MIC [3] [µg/mL] | MIC [4] [µg/mL] | MIC ([5]; ATCC25922, 20 h) [µg/mL] | MIC [6] [µg/mL] | MIC [7] [µg/mL] | MIC ([5]; ATCC25922, S. pneumoniae, CAMHB supplemented with 5% lysed horse blood, 35° C., 20 hours) [µg/mL]
C[C@H]1COc2c(N3CC(CC4(N)CC4)C3)c(F)cc3cc(C(=O)O)c(=O)n1c23 [Example 1.76, (S)-10-(3-((1-aminocyclopropyl)methyl)azetidin-1-yl)-9-fluoro-3-methyl-5-oxo-2,3-dihydro-5H-[1,4]oxazino[2,3,4-ij]quinoline-6-carboxylic acid] | > 32 | > 32 | > 32 | > 32 | > 32 | > 32 | > 32 | –
C[C@H]1COc2c(N3CCC(C)(CN)C3)c(F)cc3cc(C(=O)O)c(=O)n1c23 (stereo partly drawn) [Example 1.26, (3S)-10-(3-(aminomethyl)-3-methylpyrrolidin-1-yl)-9-fluoro-3-methyl-5-oxo-2,3-dihydro-5H-[1,4]oxazino[2,3,4-ij]quinoline-6-carboxylic acid] | > 32 | 1 to 32 (≈ 2.66 to 85.2 µM) | 1 to 32 (≈ 2.66 to 85.2 µM) | 1 to 32 (≈ 2.66 to 85.2 µM) | 1 to 32 (≈ 2.66 to 85.2 µM) | > 32 | 1 to 32 (≈ 2.66 to 85.2 µM) | –
C[C@H]1Cn2c(=O)c(C(=O)O)cc3cc(F)c(N4CC[C@@H](C5(N)CC5)C4)c(c32)O1 [Example 1.23, (S)-10-((R)-3-(1-aminocyclopropyl)pyrrolidin-1-yl)-9-fluoro-2-methyl-5-oxo-2,3-dihydro-5H-[1,4]oxazino[2,3,4-ij]quinoline-6-carboxylic acid] | > 32 | > 32 | > 32 | > 32 | 1 to 32 (≈ 2.58 to 82.6 µM) | > 32 | 1 to 32 (≈ 2.58 to 82.6 µM) | –
C[C@H]1COc2c(N3CC4CNCC4C3)c(F)cc3cc(C(=O)O)c(=O)n1c23 (stereo partly drawn) [Example 1.37, (3S)-9-fluoro-10-(hexahydropyrrolo[3,4-c]pyrrol-2(1H)-yl)-3-methyl-5-oxo-2,3-dihydro-5H-[1,4]oxazino[2,3,4-ij]quinoline-6-carboxylic acid] | > 32 | > 32 | > 32 | > 32 | > 32 | > 32 | > 32 | –
C[C@H]1COc2c(N3Cc4ccncc4C3)c(F)cc3cc(C(=O)O)c(=O)n1c23 [Example 1.15, (S)-10-(1,3-dihydro-2H-pyrrolo[3,4-c]pyridin-2-yl)-9-fluoro-3-methyl-5-oxo-2,3-dihydro-5H-[1,4]oxazino[2,3,4-ij]quinoline-6-carboxylic acid] | 1 to 32 (≈ 2.62 to 83.9 µM) | 1 to 32 (≈ 2.62 to 83.9 µM) | 1 to 32 (≈ 2.62 to 83.9 µM) | < 1 | < 1 | > 32 | 1 to 32 (≈ 2.62 to 83.9 µM) | –
C[C@H]1CNc2c(N3CC[C@@H](C4(N)CC4)C3)c(F)cc3cc(C(=O)O)c(=O)n1c23.Cl [Example 10, (S)-10-((R)-3-(1-aminocyclopropyl)pyrrolidin-1-yl)-9-fluoro-3-methyl-5-oxo-2,3-dihydro-1H,5H-pyrido[1,2,3-de]quinoxaline-6-carboxylic acid hydrochloride salt] | > 32 | 1 to 32 | 1 to 32 | 1 to 32 | – | > 32 | 1 to 32 | 1 to 32
C[C@H]1COc2c(N3CC4C(N)C4C3)c(F)cc3cc(C(=O)O)c(=O)n1c23 (mixture of isomers) [Example 1.38, (3S)-10-(6-amino-3-azabicyclo[3.1.0]hexan-3-yl)-9-fluoro-3-methyl-5-oxo-2,3-dihydro-5H-[1,4]oxazino[2,3,4-ij]quinoline-6-carboxylic acid] | > 32 | 1 to 32 | 1 to 32 | < 1 | 1 to 32 | 1 to 32 | < 1 | –
